Results reported in ChEMBL document CHEMBL4673324, “Xanthones for melanogenesis inhibition: Molecular docking and QSAR studies to understand their anti-tyrosinase activity” (Bioorg Med Chem, 2021).

Assays:
Mushroom tyrosinase = Mushroom tyrosinase (Agaricus bisporus, UniProt O42713+Q00024+C7FF04+C7FF05); assay: Inhibition of mushroom tyrosinase using tyrosine as substrate incubated for 20 mins followed by substrate addition and measured every 10 mins for 30 mins
[1] = Inhibition of Elastase (unknown origin) using N-methoxysuccinyl-Ala-Ala-Pro-Val-p-nitroanilide as substrate incubated for 20 mins followed by substrate addition and measured after 40 mins; parameters: species or system Homo sapiens
[2] = compound: Cc1cc(O)c(O)c2oc3cc(O)ccc3c(=O)c12; assay: Uncompetitive inhibition of Tyrosinase (unknown origin) assessed as Michaelis-Menten constant at 13.2 uM using tyrosine as substrate incubated for 20 mins followed by substrate addition and measured every 10 mins for 30 mins by Lineweaver-Burk plot analysis (reference value: […] +/- […] mM); settings: Homo sapiens, time 50.0 min
[3] = compound: COc1cc(C)c2c(=O)c3ccccc3oc2c1OC; assay: Uncompetitive inhibition of Tyrosinase (unknown origin) assessed as Michaelis-Menten constant at 8 uM using tyrosine as substrate incubated for 20 mins followed by substrate addition and measured every 10 mins for 30 mins by Lineweaver-Burk plot analysis (reference value: […] +/- […] mM); settings: Homo sapiens, time 50.0 min
[4] = compound: Cc1cc(O)c(O)c2oc3cc(O)ccc3c(=O)c12; assay: Uncompetitive inhibition of Tyrosinase (unknown origin) assessed as maximal velocity at 6.60 uM using tyrosine as substrate incubated for 20 mins followed by substrate addition and measured every 10 mins for 30 mins by Lineweaver-Burk plot analysis (reference value: […] +/- […] /min); settings: Homo sapiens; dose 6.6 µM, time 50.0 min
[5] = compound: Cc1cc(O)c(O)c2oc3cc(O)ccc3c(=O)c12; assay: Uncompetitive inhibition of Tyrosinase (unknown origin) assessed as maximal velocity at 1.65 uM using tyrosine as substrate incubated for 20 mins followed by substrate addition and measured every 10 mins for 30 mins by Lineweaver-Burk plot analysis (reference value: […] +/- […] /min); settings: Homo sapiens, time 50.0 min
[6] = compound: COc1cc(C)c2c(=O)c3ccccc3oc2c1OC; assay: Uncompetitive inhibition of Tyrosinase (unknown origin) assessed as maximal velocity at 2 uM using tyrosine as substrate incubated for 20 mins followed by substrate addition and measured every 10 mins for 30 mins by Lineweaver-Burk plot analysis (reference value: […] +/- […] /min); settings: Homo sapiens, time 50.0 min
[7] = compound: COc1cc(C)c2c(=O)c3ccccc3oc2c1OC; assay: Uncompetitive inhibition of Tyrosinase (unknown origin) assessed as maximal velocity at 4 uM using tyrosine as substrate incubated for 20 mins followed by substrate addition and measured every 10 mins for 30 mins by Lineweaver-Burk plot analysis (reference value: […] +/- […] /min); settings: Homo sapiens, time 50.0 min
[8] = compound: COc1cc(C)c2c(=O)c3ccccc3oc2c1OC; assay: Uncompetitive inhibition of Tyrosinase (unknown origin) assessed as Michaelis-Menten constant at 4 uM using tyrosine as substrate incubated for 20 mins followed by substrate addition and measured every 10 mins for 30 mins by Lineweaver-Burk plot analysis (reference value: […] +/- […] mM); settings: Homo sapiens, time 50.0 min
[9] = compound: COc1cc(C)c2c(=O)c3ccccc3oc2c1OC; assay: Uncompetitive inhibition of Tyrosinase (unknown origin) assessed as maximal velocity at 8 uM using tyrosine as substrate incubated for 20 mins followed by substrate addition and measured every 10 mins for 30 mins by Lineweaver-Burk plot analysis (reference value: […] +/- […] /min); settings: Homo sapiens, time 50.0 min
[10] = compound: COc1cc(C)c2c(=O)c3ccccc3oc2c1OC; assay: Uncompetitive inhibition of Tyrosinase (unknown origin) assessed as Michaelis-Menten constant at 16 uM using tyrosine as substrate incubated for 20 mins followed by substrate addition and measured every 10 mins for 30 mins by Lineweaver-Burk plot analysis (reference value: […] +/- […] mM); settings: Homo sapiens, time 50.0 min
[11] = compound: COc1cc(C)c2c(=O)c3ccccc3oc2c1OC; assay: Uncompetitive inhibition of Tyrosinase (unknown origin) assessed as Michaelis-Menten constant at 2 uM using tyrosine as substrate incubated for 20 mins followed by substrate addition and measured every 10 mins for 30 mins by Lineweaver-Burk plot analysis (reference value: […] +/- […] mM); settings: Homo sapiens, time 50.0 min
[12] = compound: COc1cc(C)c2c(=O)c3ccccc3oc2c1OC; assay: Uncompetitive inhibition of Tyrosinase (unknown origin) assessed as maximal velocity at 16 uM using tyrosine as substrate incubated for 20 mins followed by substrate addition and measured every 10 mins for 30 mins by Lineweaver-Burk plot analysis (reference value: […] +/- […] /min); settings: Homo sapiens, time 50.0 min
[13] = compound: Cc1cc(O)c(O)c2oc3cc(O)ccc3c(=O)c12; assay: Uncompetitive inhibition of Tyrosinase (unknown origin) assessed as Michaelis-Menten constant at 1.65 uM using tyrosine as substrate incubated for 20 mins followed by substrate addition and measured every 10 mins for 30 mins by Lineweaver-Burk plot analysis (reference value: […] +/- […] mM); settings: Homo sapiens, time 50.0 min
[14] = compound: Cc1cc(O)c(O)c2oc3cc(O)ccc3c(=O)c12; assay: Uncompetitive inhibition of Tyrosinase (unknown origin) assessed as maximal velocity at 3.30 uM using tyrosine as substrate incubated for 20 mins followed by substrate addition and measured every 10 mins for 30 mins by Lineweaver-Burk plot analysis (reference value: […] +/- […] /min); settings: Homo sapiens; dose 3.3 µM, time 50.0 min
[15] = compound: Cc1cc(O)c(O)c2oc3cc(O)ccc3c(=O)c12; assay: Uncompetitive inhibition of Tyrosinase (unknown origin) assessed as maximal velocity at 13.2 uM using tyrosine as substrate incubated for 20 mins followed by substrate addition and measured every 10 mins for 30 mins by Lineweaver-Burk plot analysis (reference value: […] +/- […] /min); settings: Homo sapiens, time 50.0 min
[16] = compound: Cc1cc(O)c(O)c2oc3cc(O)ccc3c(=O)c12; assay: Uncompetitive inhibition of Tyrosinase (unknown origin) assessed as Michaelis-Menten constant at 6.6 uM using tyrosine as substrate incubated for 20 mins followed by substrate addition and measured every 10 mins for 30 mins by Lineweaver-Burk plot analysis (reference value: […] +/- […] mM); settings: Homo sapiens, time 50.0 min
[17] = compound: Cc1cc(O)c(O)c2oc3cc(O)ccc3c(=O)c12; assay: Uncompetitive inhibition of Tyrosinase (unknown origin) assessed as Michaelis-Menten constant at 3.3 uM using tyrosine as substrate incubated for 20 mins followed by substrate addition and measured every 10 mins for 30 mins by Lineweaver-Burk plot analysis (reference value: […] +/- […] mM); settings: Homo sapiens, time 50.0 min

Row | IC50 (Mushroom tyrosinase) [µM] | Molecule | other results
1 | 8.47 | COc1ccc2oc3ccccc3c(=O)c2c1 | –
2 | 8.93 | Cc1cc(O)c(O)c2oc3ccccc3c(=O)c12 | –
3 | 5.33 | COc1cccc2c(=O)c3ccccc3oc12 | –
4 | 3.37 | COc1cc(C(Br)Br)c2c(=O)c3ccccc3oc2c1OC | –
5 | 3.16 | COc1cc(C=O)c2c(=O)c3ccc(O)cc3oc2c1OC | –
6 | 5.14 | COc1cccc2oc3ccccc3c(=O)c12 | –
7 | 5.6 | O=c1c2ccccc2oc2ccc(O)cc12 | –
8 | 2.24 | COc1ccc2c(=O)c3c(C)cc(OC)c(OC)c3oc2c1 | –
9 | 89.37 | O=Cc1cc(O)c(O)c2oc3ccccc3c(=O)c12 | –
10 | 4.52 | O=c1c2cc(O)ccc2oc2cccc(O)c12 | –
11 | 2 | COc1cc(C)c2c(=O)c3ccccc3oc2c1OC | –
12 | 9.26 | O=c1c2ccccc2oc2cc(O)ccc12 | –
13 | 5.7 | O=c1c2ccccc2oc2cc(O)c(O)cc12 | –
14 | 29.13 | COc1cc(C=O)c2c(=O)c3ccccc3oc2c1OC | –

The remaining lines, values behind:

Row | Molecule | IC50 (Mushroom tyrosinase) [µM] | other results
15 | O=c1c2ccccc2oc2c(O)cccc12 | 8.46 | –
16 | H-MAAPVCK-OH | – | IC50 [1]: 0.26 µM
17 | Cc1cc(O)c(O)c2oc3cc(O)ccc3c(=O)c12 | 3.28 | –
18 | O=c1c2ccc(O)cc2oc2cc(O)ccc12 | 4.42 | IC50 [1]: 91.8 µM
19 | COc1c(O)ccc2c(=O)c3ccccc3oc12 | 3.81 | –
20 | COc1ccc2c(=O)c3c(C)c(Cl)c(OC)c(OC)c3oc2c1 | 1.9 | –
21 | COc1ccc2c(=O)c3ccccc3oc2c1O | 5.2 | –
22 | COc1ccc2c(=O)c3ccccc3oc2c1 | 5.14 | –
23 | COc1cc2oc3ccccc3c(=O)c2cc1OC | 8.29 | –
24 | COc1ccc2c(=O)c3c(C)c(Br)c(OC)c(OC)c3oc2c1 | 5.57 | –
25 | COc1c(O)cc2oc3ccccc3c(=O)c2c1O | 3.01 | –
26 | COc1ccc2c(=O)c3ccccc3oc2c1OC | 5.12 | –
27 | O=c1c2ccccc2oc2ccccc12 [XANTHONE] | 8.84 | –
28 | COc1ccc2oc3ccccc3c(=O)c2c1OC | 4.02 | –
29 | O=c1c2ccccc2oc2c(O)c(O)ccc12 [3,4-DIHYDROXYXANTHONE] | 5.12 | –
30 | O=c1c2ccccc2oc2ccc(O)c(O)c12 | 7.8 | –
31 | Tyrosinase (Homo sapiens), P14679 (protein) MLLAVLYCLLWSFQTSAGHFPRACVSSKNLMEKECCPPWSGDRSPCGQLSGRGSCQNILLSNAPLGPQFPFTGVDDRESWPSVFYNRTCQCSGNFMGFNCGNCKFGFWGPNCTERRLLVRRNIFDLSAPEKDKFFAYLTLAKHTISSDYVIPIGTYGQMKNGSTPMFNDINIYDLFVWMHYYVSMDALLGGSEIWRDIDFAHEAPAFLPWHRLFLLRWEQEIQKLTGDENFTIPYWDWRDAEKCDICTDEYMGGQHPTNPNLLSPASFFSSWQIVCSRLEEYNSHQSLCNGTPEGPLRRNPGNHDKSRTPRLPSSADVEFCLSLTQYESGSMDKAANFSFRNTLEGFASPLTGIADASQSSMHNALHIYMNGTMSQVQGSANDPIFLLHHAFVDSIFEQWLRRHRPLQEVYPEANAPIGHNRESYMVPFIPLYRNGDFFISSKDLGYDYSYLQDSDPDSFQDYIKSYLEQASRIWSWLLGAAMVGAVLTALLAGLVSLLCRHKRKQLPEEKQPLLMEKEDYHSLYQSHL | – | Km [2]: 28 µM; Km [3]: 27 µM; Vmax [4]: 0.0032 min⁻¹; Vmax [5]: 0.0037 min⁻¹; Vmax [6]: 0.0036 min⁻¹; Vmax [7]: 0.0031 min⁻¹; Km [8]: 41 µM; Vmax [9]: 0.0025 min⁻¹; Km [10]: 26 µM; Km [11]: 53 µM; Vmax [12]: 0.0019 min⁻¹; Km [13]: 63 µM; Vmax [14]: 0.0035 min⁻¹; Vmax [15]: 0.0028 min⁻¹; Km [16]: 46 µM; Km [17]: 51 µM
